According to patent US20090196826A1, “COMPOSITIONS AND METHODS OF MAKING NON-SPHERICAL MICRO- AND NANO-PARTICLES” (BOARD OF REGENTS, THE UNIVERSITY OF TEXAS SYSTEM, priority 2007, published 2009):

Test system: subcutaneous A549 lung tumor xenograft
Experiment: antitumor efficacy in subcutaneous A549 lung tumor xenograft (caliper)
Type: in vivo, mice
Settings: equivalent DOX dose 4 mg/kg i.v. at day 0, 2, 5 and 10
Experimental: In a separate study, we have systematically investigated the antitumor efficacy of cRGD-encoded micelles in a subcutaneous A549 lung tumor xenograft study. Tumor size was measured by a caliper and normalized to that at day 0 before treatment. In this study, animals were treated with an equivalent DOX dose at 4 mg/kg for free drug, 0 and 16% cRGD-DOX-SPIO micelles, and coadministration of 16% cRGD-DOX-SPIO micelles with free cRGD peptides ([…]). Free drug or drug-encapsulated micelles were injected i.v. (bolus) into the tail vein at day 0, 2, 5 and 10. The control group was injected with phosphate buffer saline (PBS). Three animals were used for each sample group.

In the case of COc1cccc2c1C(=O)c1c(O)c3c(c(O)c1C2=O)C[C@@](O)(C(=O)CO)C[C@@H]3O[C@H]1C[C@H](N)[C@H](O)[C@H](C)O1 [free DOX, doxorubicin], the “tumor size change” value is reported as “did not change dramatically”.
